As usually defined, the IC50 is the midpoint of a concentration-inhibition curve.

Sequence of Indoleamine 2,3-dioxygenase 1 (P14902 whole entry): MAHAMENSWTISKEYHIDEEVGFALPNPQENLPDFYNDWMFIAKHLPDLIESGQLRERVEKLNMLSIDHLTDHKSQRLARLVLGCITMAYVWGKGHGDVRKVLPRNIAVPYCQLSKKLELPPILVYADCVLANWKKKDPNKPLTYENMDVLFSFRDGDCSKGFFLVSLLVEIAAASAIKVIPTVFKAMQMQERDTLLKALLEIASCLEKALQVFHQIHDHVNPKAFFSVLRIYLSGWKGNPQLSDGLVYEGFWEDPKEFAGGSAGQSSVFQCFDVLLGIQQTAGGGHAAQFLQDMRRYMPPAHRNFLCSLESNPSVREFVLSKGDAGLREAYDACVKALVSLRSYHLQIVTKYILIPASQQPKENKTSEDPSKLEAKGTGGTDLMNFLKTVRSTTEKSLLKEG

This experiment addresses Indoleamine 2,3-dioxygenase 1 (Homo sapiens, UniProt P14902). In words: Inhibition of recombinant human IDO1 assessed as reduction in kynurenine formation using L-tryptophan as substrate incubated for 45 mins by microplate reader assay.
As to `O=C(O)c1cc2c(Nc3ccc(F)c(Cl)c3)ccc(Cl)c2[nH]1`, the half-inhibitory concentration (IC50) is above 100 µM. Regarding `O=C(O)c1cc2c(C(=O)Nc3ccc(F)c(Cl)c3)ccc(F)c2[nH]1`, the half-inhibitory concentration (IC50) is above 100 µM. To `O=C(O)c1cc2c(Nc3ccc(OC(F)(F)F)c(Cl)c3)ccc(F)c2[nH]1` belongs above 100 µM. Consider `N#Cc1cc2c(Nc3ccc(F)c(Cl)c3)ccc(F)c2[nH]1`, for which the IC50 was above 100 µM. The same measure for `O=C(O)c1cc2c(Nc3ccc(F)c(Cl)c3)cc(Cl)cc2[nH]1`: above 100 µM. The same measure for `O=C(Nc1ccc(F)c2[nH]c(C(=O)O)cc12)c1ccc(F)c(Cl)c1`: above 100 µM. For the compound `Cc1ccc(Nc2ccc(F)c(Cl)c2)c2cc(C(=O)O)[nH]c12`, the IC50 is above 100 µM. The same measure for `O=C(O)c1cc2c(NCc3ccc(F)c(Cl)c3)ccc(F)c2[nH]1`: above 100 µM; for `CC(=O)Nc1cc(Nc2ccc(F)c(Cl)c2)c2cc(C(=O)O)sc2c1`: above 100 µM. To `O=C(O)c1cc2c(Sc3ccc(F)c(Cl)c3)ccc(F)c2[nH]1` belongs above 100 µM; to `O=C(Cc1ccc(F)c(Cl)c1)Nc1ccc(F)c2[nH]c(C(=O)O)cc12`, above 100 µM. As to `COc1cc(Nc2ccc(F)c(Cl)c2)c2cc(C(=O)O)[nH]c2c1`, the IC50 is above 100 µM. The same measure for `Fc1ccc(Nc2ccc(F)c3[nH]ccc23)cc1Cl`: above 100 µM; for `COc1cc(Cl)cc(Nc2ccc(F)c3[nH]c(C(=O)O)cc23)c1`: above 100 µM; for `COc1ccc(Nc2ccc(F)c3[nH]c(C(=O)O)cc23)cc1Cl`: above 100 µM. The same measure for `O=C(O)c1cc2c(Nc3ccc(F)c(Cl)c3)cccc2[nH]1`: above 100 µM; for `COc1ccc(C(=O)O)c(Nc2ccc(F)c3[nH]c(C(=O)O)cc23)c1`: above 100 µM; for `O=C(O)c1cc2c(Nc3ccc(Cl)c(Cl)c3)ccc(F)c2[nH]1`: above 100 µM. To `O=C(NO)c1cc2c(Nc3ccc(F)c(Cl)c3)ccc(F)c2[nH]1` belongs above 100 µM. As to `O=C(Nc1ccc(F)c(Cl)c1)Nc1ccc(F)c2[nH]c(C(=O)O)cc12`, the IC50 was above 100 µM.

Consider `CC(=O)Nc1ccc(Nc2ccc(F)c(Cl)c2)c2cc(C(=O)O)[nH]c12`, for which the half-maximal inhibitory concentration (IC50) was above 100 µM. Turning to `O=C(O)c1cc2c(Nc3ccc(F)c(Cl)c3)cc(F)cc2[nH]1`, the IC50 is above 100 µM. The same measure for `Cc1cc2c(Nc3ccc(F)c(Cl)c3)ccc(F)c2[nH]1`: above 100 µM. The same measure for `N#Cc1ccc(Nc2ccc(F)c(Cl)c2)c2cc(C(=O)O)[nH]c12`: above 100 µM. To `O=C(O)c1cc2c(Nc3ccc(F)c4[nH]ccc34)ccc(F)c2[nH]1` belongs above 100 µM; to `N#Cc1cc(Nc2ccc(F)c3[nH]c(C(=O)O)cc23)ccc1F`, above 100 µM. As for `N/C(=N\O)c1cc2c(Nc3ccc(F)c(Cl)c3)ccc(F)c2[nH]1`, the IC50 was above 100 µM.

With `OCc1cc2c(Nc3ccc(F)c(Cl)c3)ccc(F)c2[nH]1`, the IC50 is above 100 µM. The same measure for `O=C(O)c1cc2c(Nc3ccc(F)c(Cl)c3)ccc([N+](=O)[O-])c2[nH]1`: above 100 µM. To `Cn1c(C(=O)O)cc2c(Nc3ccc(F)c(Cl)c3)ccc(F)c21` belongs above 100 µM; to `Cc1cc(Nc2ccc(F)c(Cl)c2)c2cc(C(=O)O)n(C)c2c1`, above 100 µM; to `O=C(O)c1cc2c(Nc3cccc4[nH]ccc34)ccc(F)c2[nH]1`, above 100 µM. To `O=C(O)c1cc2c(Nc3ccc(F)c(F)c3)ccc(F)c2[nH]1` belongs above 100 µM.

`NC(=O)c1cc2c(Nc3ccc(F)c(Cl)c3)ccc(F)c2[nH]1`: the IC50 is above 100 µM.

Regarding `COc1cc(Nc2ccc(F)c3[nH]c(C(=O)O)cc23)cc(C(F)(F)F)c1`, the concentration for half-maximal inhibition (IC50) is above 100 µM. The same measure for `O=C(O)c1cc2c(Nc3ccc(C(F)(F)F)c(Cl)c3)ccc(F)c2[nH]1`: above 100 µM.
